{"source": "paper PMC10247784", "about": "“Physiological activation of human and mouse bitter taste receptors by bile acids” (Communications Biology, 2023)", "target": "T1, mouse Tas2r144 (Mus musculus, UniProt Q7TQB8)", "T1 construct": "expressed in transfected cells; host or cells: HEK293T-Gα16gust44", "T1 sequence (Q7TQB8 whole entry)": "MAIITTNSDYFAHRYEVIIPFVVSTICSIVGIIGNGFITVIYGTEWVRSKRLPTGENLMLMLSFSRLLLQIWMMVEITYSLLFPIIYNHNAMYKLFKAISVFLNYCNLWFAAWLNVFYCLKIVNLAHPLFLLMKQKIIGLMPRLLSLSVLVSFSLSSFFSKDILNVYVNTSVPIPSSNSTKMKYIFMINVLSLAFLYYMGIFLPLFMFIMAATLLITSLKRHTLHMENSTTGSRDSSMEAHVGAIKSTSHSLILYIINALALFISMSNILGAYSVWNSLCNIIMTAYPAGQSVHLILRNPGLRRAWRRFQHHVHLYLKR", "assay": "Calcium imaging assay (FLIPR), HEK293T-Gα16gust44 cells transfected with mouse Tas2r144", "assay_type": "cell-based", "data": [{"smiles": "C[C@H](CCC(=O)NCCS(=O)(=O)O)[C@H]1CC[C@H]2[C@@H]3CC[C@@H]4C[C@H](O)CC[C@]4(C)[C@H]3CC[C@]12C", "note": "[Taurolithocholic Acid, taurolithocholic acid]", "values": [{"measurement": "RLU", "setting": "Time 0 s", "result": 0, "unit": "RLU"}, {"measurement": "RLU", "setting": "Time 2 s", "result": 14.6538, "unit": "RLU"}, {"measurement": "RLU", "setting": "Time 4 s", "result": 0.2718, "unit": "RLU"}, {"measurement": "RLU", "setting": "Time 6 s", "result": -11.922, "unit": "RLU"}, {"measurement": "RLU", "setting": "Time 8 s", "result": 1.321, "unit": "RLU"}, {"measurement": "RLU", "setting": "Time 12 s", "result": 10.4417, "unit": "RLU"}, {"measurement": "RLU", "setting": "Time 14 s", "result": -10.556, "unit": "RLU"}, {"measurement": "RLU", "setting": "Time 16 s", "result": -6.199, "unit": "RLU"}, {"measurement": "RLU", "setting": "Time 18 s", "result": 24.6697, "unit": "RLU"}, {"measurement": "RLU", "setting": "Time 18.781 s", "result": 60.5615, "unit": "RLU"}, {"measurement": "RLU", "setting": "Time 20.781 s", "result": -19.5171, "unit": "RLU"}, {"measurement": "RLU", "setting": "Time 22.781 s", "result": -4.009, "unit": "RLU"}, {"measurement": "RLU", "setting": "Time 24.781 s", "result": -20.7725, "unit": "RLU"}, {"measurement": "RLU", "setting": "Time 26.781 s", "result": 1.348, "unit": "RLU"}, {"measurement": "RLU", "setting": "Time 28.781 s", "result": -0.7767, "unit": "RLU"}, {"measurement": "RLU", "setting": "Time 30.781 s", "result": 41.688, "unit": "RLU"}, {"measurement": "RLU", "setting": "Time 32.781 s", "result": 71.1245, "unit": "RLU"}, {"measurement": "RLU", "setting": "Time 34.781 s", "result": 105.382, "unit": "RLU"}, {"measurement": "RLU", "setting": "Time 36.781 s", "result": 151.604, "unit": "RLU"}, {"measurement": "RLU", "setting": "Time 38.781 s", "result": 184.237, "unit": "RLU"}, {"measurement": "RLU", "setting": "Time 40.781 s", "result": 248.501, "unit": "RLU"}, {"measurement": "RLU", "setting": "Time 42.781 s", "result": 269.502, "unit": "RLU"}, {"measurement": "RLU", "setting": "Time 44.781 s", "result": 268.298, "unit": "RLU"}, {"measurement": "RLU", "setting": "Time 46.781 s", "result": 327.359, "unit": "RLU"}, {"measurement": "RLU", "setting": "Time 48.781 s", "result": 341.375, "unit": "RLU"}, {"measurement": "RLU", "setting": "Time 50.781 s", "result": 358.126, "unit": "RLU"}, {"measurement": "RLU", "setting": "Time 52.781 s", "result": 372.318, "unit": "RLU"}, {"measurement": "RLU", "setting": "Time 54.781 s", "result": 375.128, "unit": "RLU"}, {"measurement": "RLU", "setting": "Time 56.781 s", "result": 360.867, "unit": "RLU"}, {"measurement": "RLU", "setting": "Time 58.781 s", "result": 388.738, "unit": "RLU"}, {"measurement": "RLU", "setting": "Time 60.781 s", "result": 413.492, "unit": "RLU"}, {"measurement": "RLU", "setting": "Time 62.781 s", "result": 416.863, "unit": "RLU"}, {"measurement": "RLU", "setting": "Time 64.781 s", "result": 424.583, "unit": "RLU"}, {"measurement": "RLU", "setting": "Time 66.781 s", "result": 428.264, "unit": "RLU"}, {"measurement": "RLU", "setting": "Time 68.781 s", "result": 426.421, "unit": "RLU"}, {"measurement": "RLU", "setting": "Time 70.781 s", "result": 448.262, "unit": "RLU"}, {"measurement": "RLU", "setting": "Time 72.781 s", "result": 417.687, "unit": "RLU"}, {"measurement": "RLU", "setting": "Time 74.781 s", "result": 456.073, "unit": "RLU"}, {"measurement": "RLU", "setting": "Time 76.781 s", "result": 430.589, "unit": "RLU"}, {"measurement": "RLU", "setting": "Time 78.781 s", "result": 445.771, "unit": "RLU"}, {"measurement": "RLU", "setting": "Time 80.781 s", "result": 460.032, "unit": "RLU"}, {"measurement": "RLU", "setting": "Time 82.781 s", "result": 446.511, "unit": "RLU"}, {"measurement": "RLU", "setting": "Time 84.781 s", "result": 409.522, "unit": "RLU"}, {"measurement": "RLU", "setting": "Time 86.781 s", "result": 409.191, "unit": "RLU"}, {"measurement": "RLU", "setting": "Time 88.781 s", "result": 405.957, "unit": "RLU"}, {"measurement": "RLU", "setting": "Time 90.781 s", "result": 381.655, "unit": "RLU"}, {"measurement": "RLU", "setting": "Time 92.781 s", "result": 387.142, "unit": "RLU"}, {"measurement": "RLU", "setting": "Time 94.781 s", "result": 402.42, "unit": "RLU"}, {"measurement": "RLU", "setting": "Time 96.781 s", "result": 404.326, "unit": "RLU"}, {"measurement": "RLU", "setting": "Time 98.781 s", "result": 373.324, "unit": "RLU"}, {"measurement": "RLU", "setting": "Time 100.781 s", "result": 389.827, "unit": "RLU"}, {"measurement": "RLU", "setting": "Time 102.781 s", "result": 378.133, "unit": "RLU"}, {"measurement": "RLU", "setting": "Time 104.781 s", "result": 393.124, "unit": "RLU"}, {"measurement": "RLU", "setting": "Time 106.781 s", "result": 394.729, "unit": "RLU"}, {"measurement": "RLU", "setting": "Time 108.781 s", "result": 385.581, "unit": "RLU"}, {"measurement": "RLU", "setting": "Time 110.781 s", "result": 380.059, "unit": "RLU"}, {"measurement": "RLU", "setting": "Time 112.781 s", "result": 389.586, "unit": "RLU"}, {"measurement": "RLU", "setting": "Time 114.781 s", "result": 357.6, "unit": "RLU"}, {"measurement": "RLU", "setting": "Time 116.781 s", "result": 386.704, "unit": "RLU"}, {"measurement": "RLU", "setting": "Time 118.781 s", "result": 385.665, "unit": "RLU"}, {"measurement": "RLU", "setting": "Time 120.781 s", "result": 364.459, "unit": "RLU"}, {"measurement": "RLU", "setting": "Time 122.781 s", "result": 361.618, "unit": "RLU"}, {"measurement": "RLU", "setting": "Time 124.781 s", "result": 373.746, "unit": "RLU"}, {"measurement": "RLU", "setting": "Time 126.781 s", "result": 327.57, "unit": "RLU"}, {"measurement": "RLU", "setting": "Time 128.781 s", "result": 359.155, "unit": "RLU"}, {"measurement": "RLU", "setting": "Time 130.781 s", "result": 325.368, "unit": "RLU"}, {"measurement": "RLU", "setting": "Time 132.781 s", "result": 293.828, "unit": "RLU"}, {"measurement": "RLU", "setting": "Time 134.781 s", "result": 312.409, "unit": "RLU"}, {"measurement": "RLU", "setting": "Time 136.781 s", "result": 298.284, "unit": "RLU"}, {"measurement": "RLU", "setting": "Time 137.578 s", "result": 290.936, "unit": "RLU"}, {"measurement": "RLU", "setting": "Time 143.578 s", "result": 296.494, "unit": "RLU"}, {"measurement": "RLU", "setting": "Time 149.578 s", "result": 267.674, "unit": "RLU"}, {"measurement": "RLU", "setting": "Time 155.578 s", "result": 285.393, "unit": "RLU"}, {"measurement": "RLU", "setting": "Time 161.578 s", "result": 243.081, "unit": "RLU"}, {"measurement": "RLU", "setting": "Time 167.578 s", "result": 210.334, "unit": "RLU"}, {"measurement": "RLU", "setting": "Time 173.578 s", "result": 225.862, "unit": "RLU"}, {"measurement": "RLU", "setting": "Time 179.578 s", "result": 201.092, "unit": "RLU"}, {"measurement": "RLU", "setting": "Time 185.578 s", "result": 199.988, "unit": "RLU"}, {"measurement": "RLU", "setting": "Time 191.578 s", "result": 157.165, "unit": "RLU"}, {"measurement": "RLU", "setting": "Time 197.578 s", "result": 150.89, "unit": "RLU"}, {"measurement": "RLU", "setting": "Time 203.578 s", "result": 157.65, "unit": "RLU"}, {"measurement": "RLU", "setting": "Time 209.578 s", "result": 119.607, "unit": "RLU"}, {"measurement": "RLU", "setting": "Time 215.578 s", "result": 114.651, "unit": "RLU"}, {"measurement": "RLU", "setting": "Time 221.578 s", "result": 111.289, "unit": "RLU"}, {"measurement": "RLU", "setting": "Time 227.578 s", "result": 125.554, "unit": "RLU"}, {"measurement": "RLU", "setting": "Time 233.578 s", "result": 124.837, "unit": "RLU"}, {"measurement": "RLU", "setting": "Time 239.578 s", "result": 148.185, "unit": "RLU"}, {"measurement": "RLU", "setting": "Time 245.578 s", "result": 121.449, "unit": "RLU"}, {"measurement": "RLU", "setting": "Time 293.578 s", "result": 139.355, "unit": "RLU"}, {"measurement": "RLU", "setting": "Time 299.578 s", "result": 114.827, "unit": "RLU"}, {"measurement": "RLU", "setting": "Time 305.578 s", "result": 107.043, "unit": "RLU"}, {"measurement": "RLU", "setting": "Time 311.578 s", "result": 92.604, "unit": "RLU"}, {"measurement": "RLU", "setting": "Time 317.578 s", "result": 88.3008, "unit": "RLU"}, {"measurement": "RLU", "setting": "Time 323.578 s", "result": 90.2384, "unit": "RLU"}, {"measurement": "RLU", "setting": "Time 329.578 s", "result": 71.9932, "unit": "RLU"}, {"measurement": "RLU", "setting": "Time 335.578 s", "result": 67.9746, "unit": "RLU"}, {"measurement": "RLU", "setting": "Time 341.578 s", "result": 66.5352, "unit": "RLU"}, {"measurement": "RLU", "setting": "Time 347.578 s", "result": 80.5392, "unit": "RLU"}, {"measurement": "RLU", "setting": "Time 353.578 s", "result": 85.9834, "unit": "RLU"}, {"measurement": "RLU", "setting": "Time 359.578 s", "result": 89.3996, "unit": "RLU"}, {"measurement": "Activation threshold concentration Tas2r144", "setting": "p < 0.01 vs empty vector", "result": 3, "unit": "µM"}]}]}
